US20100240537A1, “Substituted 6-(alkylbenzylamino)purine derivatives for use as cytokinin receptor antagonists and preparations containing these derivatives” (priority 2007, published 2010)
Where two headings read alike, the source gives them in different places.

Experiments:
[1] = tested on: human diploid fibroblasts BJ; assay: Calcein AM cytotoxicity assay, BJ; type: cell-based; conditions: 72 hours
Description: (§1) Absence of toxic effects against mammalian (especially human) cell lines in a wide concentration range is one of the requirements on compounds intended for use in agriculture. Because toxic compounds negatively influence metabolic processes in cells, many standard cytotoxicity assays are based on measurement of metabolisation rate of various artificial substrates. Resulting product is then quantified e.g. by means of spectrometry. The assays can be easily modified for use in 96-well plates. For evaluation of cytotoxic effect of the novel substituted 6-(alkylbenzylamino)purine derivatives of this invention, a microtiter assay based on quantification of metabolisation of Calcein AM was used. The assay is widely used in drug screening programs and in chemosensitivity testing. In live cells, Calcein AM is enzymatically hydrolysed and accumulation of resulting calcein is manifested by green fluorescence.
(§2) The cells were maintained in Nunc/Corning 80 cm^2 plastic tissue culture flasks and cultured in cell culture medium (DMEM with 5 g/l glucose, 2 mM glutamine, 100 U/ml penicillin, 100 μg/ml streptomycin, 10% fetal calf serum and sodium bicarbonate).
(§3) The cell suspensions were prepared and diluted according to the particular cell type and the expected target cell density (10^4 cells per well based on cell growth characteristics) and pippetted (80 μl) into 96-well plates. Inoculates were allowed a pre-incubation period of 24 hours at 37° C., 100% humidity and 5% CO2 for stabilisation. Tested compounds were added in total volume of 20 μl of water at time zero. Usually, test compound was evaluated at six 3-fold dilutions. In routine testing, the highest concentration tested was 100 μM, the eventual changes depended on physico-chemical characteristics of the respective compound. All drug concentrations were tested in triplicates. Incubations of cells with the test compounds lasted for 72 hours at 37° C., in 5% CO2 atmosphere and 100% humidity. At the end of incubation period Calcein AM (Molecular Probes) in PBS was added into final concentration of 1 μg/ml. After another 1 hour of incubation fluorescence (FD) was measured with the Labsystem FIA Reader Fluoroscan Ascent (UK). Growth inhibition (GI) was estimated using the following equitation: GI=(mean FDdrug exposed wells−mean FDblank)/(mean FDcontrol wells−mean FDblank)×100%.

[2] = tested on: Human diploid fibroblasts SNF25; assay: MTT viability assay on human diploid fibroblasts; type: cell-based; conditions: SNF25 passage 19, 72 hours, read-out: IC50 (reduction in mitochondrial activity, MTT)
Procedure: MTT is a standard colorimetric assay for measurement of proliferation and survival of the cells. Yellow MTT is reduced into violet formazan in metabolically active cells. The amount of formazan is measured by spectrometry. Human diploid fibroblasts SNF25 (passage 19) were seeded in 96-well plate (5000 cells per well). After 6 hours, the cultivation medium (DMEM containing 5 g/l glucose, 2 mM glutamin, 100 U/ml penicillin, 100 μg/ml streptomycin and 10% fetal calf serum) was removed and fresh medium containing a test compound in concentration range of 0-100 μM was added. The concentration was adjusted in cases of compounds with limited solubility. Each concentration was tested in 5 replicates. MTT was added to the cells after 72 hours into final concentration of 0.5 mg/ml. Incubation time was 3 hours. Resulting MTT was disolved in DMSO and absorbance was measured. The cytotoxic effect was estimated as IC=(Awells with compounds/Acontrol wells)×100%.

[3] = tested on: cytokinin receptors CRE1/AHK4 and AHK3; assay: Binding assay with membranes of E. coli expressing cytokinin receptors, competition with 3HtZ; set-up: species or system Arabidopsis; conditions: negative control, 1000-fold higher concentration than compound 8
Procedure: Isolation of E. coli membranes and binding assays were carried out as previously described by Romanov et al. (Romanov et al. Analytical Biochemistry 347:129-134, 2005).

[4] = tested on: osteosarcoma cell line HOS; assay: Calcein AM cytotoxicity assay, HOS; type: cell-based, human; conditions: 72 hours
Description: as §1, §2, §3

[5] = tested on: melanoma cell line G-361; assay: Calcein AM cytotoxicity assay, G-361; type: cell-based, human
Description: as §1, §2, §3

[6] = tested on: breast carcinoma cell line MCF-7; assay: Calcein AM cytotoxicity assay, MCF-7; type: cell-based, human
Description: as §1, §2, §3

[7] = tested on: erytroid leukemia cell line K-562; assay: Calcein AM cytotoxicity assay, K-562; type: cell-based, human
Description: as §1, §2, §3

[8] = molecular target: T1, CRE1/AHK4 (Arabidopsis thaliana, UniProt Q9C5U0); assay: Activation of cytokinin receptor CRE1/AHK4 in E. coli KMI001 (β-galactosidase reporter); type: cell-based; conditions: E. coli KMI001 pIN-III-AHK4, 17 h incubation; n.i. means without interaction; read-out: EC50 CRE1/AHK4 (activation of cytokinin receptor)
T1 construct: expressed in transfected cells; host or cells: Escherichia coli KMI001, plasmid pIN-III-AHK4
T1 sequence (Q9C5U0 whole entry): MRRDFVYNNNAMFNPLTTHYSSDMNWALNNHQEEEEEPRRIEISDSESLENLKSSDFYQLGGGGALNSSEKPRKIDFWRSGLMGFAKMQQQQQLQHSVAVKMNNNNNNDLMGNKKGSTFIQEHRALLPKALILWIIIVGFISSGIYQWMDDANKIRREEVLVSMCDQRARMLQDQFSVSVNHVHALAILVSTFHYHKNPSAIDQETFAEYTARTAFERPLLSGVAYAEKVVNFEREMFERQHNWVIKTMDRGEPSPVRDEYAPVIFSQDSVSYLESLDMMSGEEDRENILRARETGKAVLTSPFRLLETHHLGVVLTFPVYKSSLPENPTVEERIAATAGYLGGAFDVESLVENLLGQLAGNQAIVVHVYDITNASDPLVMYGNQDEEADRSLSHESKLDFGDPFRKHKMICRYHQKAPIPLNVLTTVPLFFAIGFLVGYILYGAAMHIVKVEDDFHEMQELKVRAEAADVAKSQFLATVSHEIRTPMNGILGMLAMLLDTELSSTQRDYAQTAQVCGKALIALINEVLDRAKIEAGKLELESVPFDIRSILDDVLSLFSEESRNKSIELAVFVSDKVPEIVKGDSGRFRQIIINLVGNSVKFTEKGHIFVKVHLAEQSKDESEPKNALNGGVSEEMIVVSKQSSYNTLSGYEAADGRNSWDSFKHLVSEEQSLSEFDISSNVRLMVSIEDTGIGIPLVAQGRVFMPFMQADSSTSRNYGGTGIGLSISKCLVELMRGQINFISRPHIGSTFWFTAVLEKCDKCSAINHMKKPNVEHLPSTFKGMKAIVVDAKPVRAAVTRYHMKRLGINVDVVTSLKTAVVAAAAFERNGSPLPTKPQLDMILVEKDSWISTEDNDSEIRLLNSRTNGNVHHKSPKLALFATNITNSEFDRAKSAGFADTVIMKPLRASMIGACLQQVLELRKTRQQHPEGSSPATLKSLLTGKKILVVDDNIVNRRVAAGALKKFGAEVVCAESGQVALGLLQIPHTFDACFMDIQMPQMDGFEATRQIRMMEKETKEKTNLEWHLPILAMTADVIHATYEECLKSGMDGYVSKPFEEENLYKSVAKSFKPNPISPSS
Procedure: (§4) Escherichia coli strains KMI001 harbouring the plasmid pIN-III-AHK4 or pSTV28-AHK3 were grown overnight at 25° C. in M9 media enriched with 0.1% casamino acids to OD600˜1. The preculture was diluted 1:600 in 1 ml M9 medium containing 0.1% casamino acids and 1 μl stock solution of either the tested compound (10^−7 M−5×10^−5 M) or solvent control (DMSO, ethanol, methanol) were added. The cultures were further grown at 25° C. in microtiter plate, 200 μl per well. […] The cultures were centrifuged and 50 μl aliquots of the supernatant were transferred to microtiter plate containing 2 μl 50 mM 4-methyl umbelliferyl galactoside which was subsequently incubated for 1 h at 37° C. The reaction was stopped by adding 100 μl 0.2 M Na2CO3. Fluorescence was measured using a Fluoroscan Ascent (Labsystems, Finland) at the excitation and emission wavelengths of 365 and 460 nm, respectively. The OD600 of remaining culture was determined and β-galactosidase activity was calculated as nmol 4-methylumbelliferone×OD600^−1×h^−1.
(§5) The EC50 value, the compound concentration activating the receptor to 50%, was calculated from the obtained dose response curves. The compound functioning as cytokinin antagonists should not activate cytokinin signalling pathway. The values shown in Table 2 are means of three replicates and the entire test was repeated at least twice.

[9] = molecular target: T2, AHK3 (Arabidopsis thaliana, UniProt Q9C5U1); assay: Activation of cytokinin receptor AHK3 in E. coli KMI001 (β-galactosidase reporter); type: cell-based; conditions: E. coli KMI001 pSTV28-AHK3, 28 h incubation; n.i. means without interaction; read-out: EC50 AHK3 (activation of cytokinin receptor)
T2 construct: expressed in transfected cells; host or cells: Escherichia coli KMI001, plasmid pSTV28-AHK3
T2 sequence (Q9C5U1 1-1036): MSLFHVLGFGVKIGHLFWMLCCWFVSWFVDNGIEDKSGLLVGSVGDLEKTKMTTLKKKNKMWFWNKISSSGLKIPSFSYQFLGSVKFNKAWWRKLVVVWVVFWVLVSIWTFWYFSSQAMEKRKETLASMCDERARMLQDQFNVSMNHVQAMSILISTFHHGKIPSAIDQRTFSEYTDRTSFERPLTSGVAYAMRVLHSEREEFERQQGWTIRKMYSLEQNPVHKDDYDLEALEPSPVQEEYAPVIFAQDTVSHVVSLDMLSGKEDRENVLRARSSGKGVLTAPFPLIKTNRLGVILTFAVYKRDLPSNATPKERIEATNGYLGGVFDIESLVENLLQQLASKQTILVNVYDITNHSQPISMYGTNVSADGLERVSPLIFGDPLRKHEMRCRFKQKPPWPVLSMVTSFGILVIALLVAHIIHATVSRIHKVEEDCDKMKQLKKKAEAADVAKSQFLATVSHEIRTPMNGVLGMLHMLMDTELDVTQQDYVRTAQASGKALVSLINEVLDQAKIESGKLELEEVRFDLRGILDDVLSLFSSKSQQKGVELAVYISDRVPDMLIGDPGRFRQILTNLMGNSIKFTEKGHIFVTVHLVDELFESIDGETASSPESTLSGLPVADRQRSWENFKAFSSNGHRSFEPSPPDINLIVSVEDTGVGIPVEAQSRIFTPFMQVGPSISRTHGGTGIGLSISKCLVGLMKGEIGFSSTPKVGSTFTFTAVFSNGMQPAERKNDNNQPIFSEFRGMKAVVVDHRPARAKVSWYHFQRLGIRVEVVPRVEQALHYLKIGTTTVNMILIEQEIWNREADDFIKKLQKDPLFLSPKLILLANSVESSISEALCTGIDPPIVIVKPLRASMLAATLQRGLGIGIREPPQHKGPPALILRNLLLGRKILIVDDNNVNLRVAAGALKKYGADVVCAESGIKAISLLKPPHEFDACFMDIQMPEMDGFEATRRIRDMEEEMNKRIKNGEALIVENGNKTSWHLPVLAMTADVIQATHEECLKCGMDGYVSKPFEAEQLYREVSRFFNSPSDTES
Procedure: as §4, §5

| Structure (SMILES) | GI50 ([1]; Homo sapiens, Fibroblast) [µM] | IC50 ([2]; Homo sapiens, Fibroblast) [µM] | effect on binding of 3HtZ [3] | GI50 ([4]; Homo sapiens) [µM] | GI50 ([5]; Homo sapiens, G-361, 72 hours) [µM] | GI50 ([6]; Homo sapiens, MCF7, 72 hours) [µM] | GI50 ([7]; Homo sapiens, K562, 72 hours) [µM] | GI50 [1] [µM] | IC50 [2] [µM] | GI50 [4] [µM] | GI50 ([5]; 72 hours) [µM] | GI50 ([6]; 72 hours, read-out: GI50 MCF7) [µM] | GI50 ([7]; 72 hours) [µM] | EC50 [8] [µM] | EC50 [9] [µM] |
| --- | --- | --- | --- | --- | --- | --- | --- | --- | --- | --- | --- | --- | --- | --- | --- |
| Nc1ncnc2nc[nH]c12 [adenine] | > 100 | > 100 | not effective at all | > 100 | > 100 | > 100 | > 100 | – | – | – | – | – | – | – | – |
| CC(C)=CCNc1ncnc2nc[nH]c12 [isopentenyladenine] | – | – | – | – | – | – | – | > 100 | > 100 | > 100 | > 100 | > 100 | > 100 | – | – |
| c1coc(CNc2ncnc3[nH]cnc23)c1 [kinetin] | > 100 | > 100 | – | > 100 | > 100 | > 100 | > 100 | – | – | – | – | – | – | – | – |
| Oc1cccc(CNc2ncnc3nc[nH]c23)c1 [meta-topolin] | – | – | – | – | – | – | – | > 100 | > 100 | > 100 | > 100 | > 100 | > 100 | – | – |
| Oc1ccccc1CNc1ncnc2nc[nH]c12 [ortho-topolin] | – | – | – | – | – | – | – | > 100 | > 100 | > 100 | > 100 | > 100 | > 100 | – | – |
| C/C(=C\CNc1ncnc2nc[nH]c12)CO [trans-zeatin] | – | – | – | – | – | – | – | > 100 | > 100 | > 100 | > 100 | > 100 | > 100 | 0.9 | 2.1 |
